Experimental data taken from patent US20060205743A1, “Protein kinase inhibitors” (priority 2003, published 2006).

Each compound was assayed against MAPKAP-K2 (Homo sapiens, UniProt P49137) (assay: MAPKAP-Kinase 2 Assay (33P-ATP peptide phosphorylation, filter plate)). Settings: assays conducted at typically 1-100 μM.
Format: biochemical
Parameters: key: +: active; ++: more active; +++: very active
Protocol: MAPKAP-Kinase 2 Assay [Compound Preparation]
Compounds are dissolved in DMSO at a concentration of 3 mM and stored in aliquots at −20° C. Compounds in DMSO from these stock aliquots are diluted in 30% DMSO to produce initial working stock solutions of 1 mM and 3 mM. Both of these stock solutions are then subjected to 1:10 serial dilutions in 30% DMSO in order to prepare 3000, 1000, 300, 100, 30, 10, 3, 1, 0.1, 0.01 μM stock solutions. 5 μl of each stock solution is used per 50 μl reaction to give final assay concentrations of 300, 100, 30, 10, 3, 1, 0.3, 0.1, 0.01, 0.001 μM.
The kinase reaction is conducted in a round-bottomed polypropylene 96-well plate. MAPKAP-K2 is diluted to 25 mU/μl in diluent buffer (50 mM Tris/HCl. pH7.5, 0.1 mM EGTA, 0.1% (v/v) β-mercaptoethanol, 1 mg/ml BSA). 5 μl compound or 30% DMSO is added to each well followed by 25 μl substrate cocktail (10 μM ATP, 30 μM peptide (KKLNRTLSVA), 0.5 μCi ^33P-γ-ATP in 50 mM Tris pH7.5, 0.1 mM EGTA, 10 mM Mg-acetate, 0.1% BME). The reaction is initiated with the addition of 20 μl enzyme solution per well or 20 μl diluent buffer without enzyme. The plate is shaken for 10 sec and then left at room temperature for 30 min. The reaction is terminated with 50 μl 150 mM phosphoric acid. 90 μl of the reaction mixture is then transferred into a 96-well P81 filter plate (Millipore) and incubated at room temperature for 5 min. The filter plate is then washed 4 times with 200 μl 75 mM phosphoric acid per well on a plate vacuum manifold (Millipore) and dried in an oven for 2-3 h. Packard MicroScint ‘0’ (30 μl) is then added to each well, the plate is mixed for 30 min and subjected to liquid scintillation counting on a Packard TopCount.
[Interpretation] %Control=(X−B)/(Tot−B)×100 %Inhibition=100−% Control X=cpm of the test compound wells B=cpm of wells without enzyme Tot=cpm of wells with DMSO vehicle only

Chain of MAPKAP-K2 (P49137 whole entry): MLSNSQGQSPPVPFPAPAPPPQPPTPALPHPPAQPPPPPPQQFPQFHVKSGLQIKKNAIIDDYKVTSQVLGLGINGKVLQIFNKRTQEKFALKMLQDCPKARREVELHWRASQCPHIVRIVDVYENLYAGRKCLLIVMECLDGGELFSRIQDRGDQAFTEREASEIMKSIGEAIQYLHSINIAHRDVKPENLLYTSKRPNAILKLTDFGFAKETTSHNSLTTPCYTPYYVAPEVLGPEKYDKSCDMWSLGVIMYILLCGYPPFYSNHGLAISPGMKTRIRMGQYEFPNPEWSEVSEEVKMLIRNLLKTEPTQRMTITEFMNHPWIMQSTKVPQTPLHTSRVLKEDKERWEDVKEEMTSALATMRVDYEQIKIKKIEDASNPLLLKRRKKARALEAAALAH

Row | Compound | MAPKAP-K2 activity
1 | N[C@H]1CC[C@H](Nc2cc(Nc3ccc4c(c3)OC(F)(F)O4)n3nccc3n2)CC1 [Compound 4] | ++
2 | CN(C)c1ccc(Nc2cc(N[C@H]3CC[C@H](N)CC3)nc3ccnn23)cc1 [Compound 15] | +++
3 | N[C@H]1CC[C@H](Nc2cc(Nc3ccc(C(F)(F)F)cc3)n3nccc3n2)CC1 [Compound 20] | +++
4 | N[C@H]1CC[C@H](Nc2cc(Nc3ccc(Oc4ccccc4)cc3)n3nccc3n2)CC1 [Compound 21] | +++
5 | N[C@H]1CC[C@H](Nc2cc(Nc3ccc(F)cc3F)n3nccc3n2)CC1 [Compound 22] | +++
6 | CC(Nc1cc(N[C@H]2CC[C@H](N)CC2)nc2ccnn12)c1ccccc1 (stereo partly shown) [Compound 23] | +
7 | CC(Nc1cc(N[C@H]2CC[C@H](N)CC2)nc2ccnn12)c1ccc(F)cc1 (stereo partly shown) [Compound 24] | +
8 | CC(=O)NC1CCC(Nc2cc(Nc3ccc(F)c(Cl)c3)n3nccc3n2)CC1 (stereo not shown) [Compound 25] | +
9 | CS(=O)(=O)NC1CCC(Nc2cc(Nc3ccc(F)c(Cl)c3)n3nccc3n2)CC1 (stereo not shown) [Compound 27] | +
10 | O=C(NC1CCC(Nc2cc(Nc3ccc(F)c(Cl)c3)n3nccc3n2)CC1)c1ccccc1 (stereo not shown) [Compound 28] | +
11 | CC(C)(C)c1ccc(Nc2cc(NC3CCC(N)CC3)nc3ccnn23)cc1 (stereo not shown) [Compound 34] | ++
12 | CCOc1ccc(Nc2cc(NC3CCC(N)CC3)nc3ccnn23)cc1 (stereo not shown) [Compound 35] | +++
13 | CNC(=O)NC1CCC(Nc2cc(Nc3ccc(F)c(Cl)c3)n3nccc3n2)CC1 (stereo not shown) [Compound 38] | +
14 | NC1CCC(Nc2cc(Nc3ccc(Oc4ccc(Cl)cc4)cc3)n3nccc3n2)CC1 (stereo not shown) [Compound 41] | +++
15 | NC1CCC(Nc2cc(Nc3ccc(Oc4cccc(C(F)(F)F)c4)cc3)n3nccc3n2)CC1 (stereo not shown) [Compound 42] | +++
16 | NC1CCC(Nc2cc(Nc3cccc(Oc4ccccc4)c3)n3nccc3n2)CC1 (stereo not shown) [Compound 46] | +++
17 | C=CCNc1cc(NC2CCC(N)CC2)nc2ccnn12 (stereo not shown) [Compound 48] | ++
18 | O=C(Nc1ccccc1)NC1CCC(Nc2cc(Nc3ccc(F)c(Cl)c3)n3nccc3n2)CC1 (stereo not shown) [Compound 49] | +
19 | CN1CCN(Nc2cc(Nc3ccc(F)c(Cl)c3)n3nccc3n2)CC1 [Compound 50] | +
20 | NC1CCC(Nc2cc(Nc3ccc4c(c3)OCO4)n3nccc3n2)CC1 (stereo not shown) [Compound 51] | +++
21 | NC1CCC(Nc2cc(Nc3ccc(OCc4ccccc4)cc3)n3nccc3n2)CC1 (stereo not shown) [Compound 52] | +++
22 | NC1CCC(Nc2cc(Nc3ccc4c(c3)OC(F)(F)O4)n3nccc3n2)CC1 (stereo not shown) [Compound 55] | ++
23 | CN1CCC(Nc2cc(Nc3ccc(F)c(Cl)c3)n3nccc3n2)CC1 [Compound 56] | ++
24 | CNC(=S)N[C@H]1CC[C@H](Nc2cc(Nc3ccc(F)c(Cl)c3)n3nccc3n2)CC1 [Compound 57] | +
25 | C=C(C)CNc1cc(NC2CCC(N)CC2)nc2ccnn12 (stereo not shown) [Compound 58] | +++
26 | C#CCNc1cc(NC2CCC(N)CC2)nc2ccnn12 (stereo not shown) [Compound 59] | +++
27 | NC1CCCC(Nc2cc(Nc3ccc(F)c(Cl)c3)n3nccc3n2)C1 (stereo not shown) [Compound 61] | +
28 | N[C@H]1CC[C@H](Nc2cc(Nc3cccc(OCc4ccccc4)c3)n3nccc3n2)CC1 [Compound 64] | +++
29 | NC1CCCN(c2cc(Nc3ccc(F)c(Cl)c3)n3nccc3n2)C1 (stereo not shown) [Compound 72] | ++

Continued, values first:

Row | MAPKAP-K2 activity | Compound
30 | ++ | N[C@H]1CC[C@H](Nc2cc(NCc3ccc(F)c(Cl)c3)n3nccc3n2)CC1 [Compound 1]
31 | +++ | N[C@H]1CC[C@H](Nc2cc(Nc3ccc(F)c(Cl)c3)n3nccc3n2)CC1 [Compound 2]
32 | +++ | N[C@H]1CC[C@H](Nc2cc(Nc3ccc(Cl)c(Cl)c3)n3nccc3n2)CC1 [Compound 3]
33 | +++ | COc1ccc(Nc2cc(N[C@H]3CC[C@H](N)CC3)nc3ccnn23)cc1Cl [Compound 5]
34 | +++ | Cc1ccc(Nc2cc(N[C@H]3CC[C@H](N)CC3)nc3ccnn23)cc1Cl [Compound 6]
35 | ++ | Cc1ccsc1CNc1cc(N[C@H]2CC[C@H](N)CC2)nc2ccnn12 [Compound 7]
36 | ++ | N[C@H]1CC[C@H](Nc2cc(NCc3cccc(Cl)c3)n3nccc3n2)CC1 [Compound 8]
37 | +++ | Cc1ccccc1Nc1cc(N[C@H]2CC[C@H](N)CC2)nc2ccnn12 [Compound 9]
38 | +++ | N[C@H]1CC[C@H](Nc2cc(Nc3ccccc3)n3nccc3n2)CC1 [Compound 10]
39 | +++ | N[C@H]1CC[C@H](Nc2cc(Nc3cccc(Cl)c3)n3nccc3n2)CC1 [Compound 11]
40 | +++ | N[C@H]1CC[C@H](Nc2cc(Nc3ccc(Cl)cc3)n3nccc3n2)CC1 [Compound 12]
41 | +++ | N[C@H]1CC[C@H](Nc2cc(Nc3ccccc3Cl)n3nccc3n2)CC1 [Compound 13]
42 | ++ | N[C@H]1CC[C@H](Nc2cc(NCc3ccc(Cl)cc3)n3nccc3n2)CC1 [Compound 14]
43 | +++ | N[C@H]1CC[C@H](Nc2cc(Nc3ccc(F)cc3)n3nccc3n2)CC1 [Compound 16]
44 | +++ | COc1ccc(Nc2cc(N[C@H]3CC[C@H](N)CC3)nc3ccnn23)cc1 [Compound 17]
45 | + | N[C@H]1CC[C@H](Nc2cc(Nc3ccc(F)c(Cl)c3)n3nccc3n2)CC1 [Compound 18]
46 | +++ | CN(C)c1cccc(Nc2cc(N[C@H]3CC[C@H](N)CC3)nc3ccnn23)c1 [Compound 19]
47 | +++ | CSc1ccc(Nc2cc(N[C@H]3CC[C@H](N)CC3)nc3ccnn23)cc1 [Compound 26]
48 | ++ | NC1CCC(Nc2cc(NCCc3ccccc3)n3nccc3n2)CC1 (stereo not shown) [Compound 29]
49 | + | NC1CCC(Nc2cc(NCCOc3ccccc3)n3nccc3n2)CC1 (stereo not shown) [Compound 31]
50 | +++ | N#Cc1cccc(Nc2cc(NC3CCC(N)CC3)nc3ccnn23)c1 (stereo not shown) [Compound 32]

Row | MAPKAP-K2 activity | Compound
51 | +++ | CCCc1ccc(Nc2cc(NC3CCC(N)CC3)nc3ccnn23)cc1 (stereo not shown) [Compound 36]
52 | +++ | CC(C)c1ccc(Nc2cc(NC3CCC(N)CC3)nc3ccnn23)cc1 (stereo not shown) [Compound 37]
53 | ++ | NC1CCC(Nc2cc(NCc3ccc(Cl)c(Cl)c3)n3nccc3n2)CC1 (stereo not shown) [Compound 39]
54 | +++ | NC1CCC(Nc2cc(Nc3cccc(I)c3)n3nccc3n2)CC1 (stereo not shown) [Compound 40]
55 | +++ | Cc1ccc(Nc2cc(NC3CCC(N)CC3)nc3ccnn23)cc1C (stereo not shown) [Compound 43]
56 | +++ | Cc1cccc(Nc2cc(NC3CCC(N)CC3)nc3ccnn23)c1 (stereo not shown) [Compound 44]
57 | ++ | Cc1cccc(C)c1Nc1cc(NC2CCC(N)CC2)nc2ccnn12 (stereo not shown) [Compound 45]
58 | ++ | COc1ccccc1Nc1cc(NC2CCC(N)CC2)nc2ccnn12 (stereo not shown) [Compound 47]
59 | ++ | NC1CCC(Nc2cc(NCc3cccc(I)c3)n3nccc3n2)CC1 (stereo not shown) [Compound 53]
60 | ++ | CCOc1ccccc1Nc1cc(NC2CCC(N)CC2)nc2ccnn12 (stereo not shown) [Compound 54]
61 | +++ | N[C@H]1CC[C@H](Nc2cc(Nc3ccc(Cl)cc3Cl)n3nccc3n2)CC1 [Compound 60]
62 | +++ | COc1cccc(Nc2cc(N[C@H]3CC[C@H](N)CC3)nc3ccnn23)c1 [Compound 62]
63 | +++ | N[C@H]1CC[C@H](Nc2cc(Nc3cccc(OC(F)(F)F)c3)n3nccc3n2)CC1 [Compound 63]
64 | +++ | CCOc1cccc(Nc2cc(N[C@H]3CC[C@H](N)CC3)nc3ccnn23)c1 [Compound 65]
65 | +++ | N[C@H]1CC[C@H](Nc2cc(Nc3ccccc3F)n3nccc3n2)CC1 [Compound 66]
66 | +++ | N[C@H]1CC[C@H](Nc2cc(Nc3cccc(Cl)c3Cl)n3nccc3n2)CC1 [Compound 67]
67 | +++ | N[C@H]1CC[C@H](Nc2cc(Nc3cc(Cl)ccc3Cl)n3nccc3n2)CC1 [Compound 68]
68 | +++ | N[C@H]1CC[C@H](Nc2cc(Nc3c(Cl)cccc3Cl)n3nccc3n2)CC1 [Compound 69]
69 | +++ | N[C@H]1CC[C@H](Nc2cc(Nc3ccc(O)cc3)n3nccc3n2)CC1 [Compound 70]
70 | ++ | N[C@H]1CC[C@H](Nc2cc(NCc3ccccc3Cl)n3nccc3n2)CC1 [Compound 71]
